Measurements as given in BindingDB's records for doi:10.1128/aac.00737-07 (Duke University Medical Center, 2008).

What was measured:
[1] = Inhibition of HIV1 (isolate YU2) envelope glycoprotein 120-mediated membrane fusion between virus-transfected african green monkey COS cells and human TZM-bl cells by luciferase-based cell-cell fusion assay in absence of IC9564
[2] = Inhibition of HIV1 (isolate YU2) envelope glycoprotein 120-mediated membrane fusion between virus-transfected african green monkey COS cells and human TZM-bl cells by luciferase-based cell-cell fusion assay in presence of IC9564

SMILES: COc1ccnc2[nH]cc(C(=O)C(=O)N3CCN(C(=O)c4ccccc4)C[C@H]3C)c12 [(R)-1-(4-benzoyl-2-methylpiperazin-1-yl)-2-(4-methoxy-1H-pyrrolo[2,3-b]pyridin-3-yl)ethane-1,2-dione]
- IC50 [1]: 137 nM
- IC50 [2]: 34.4 nM
